Assays:
[1] = tested on: human KRAS G12V mutant-positive pancreatic cancer line PA-TU-8902; assay: Test Example 3: non-anchorage-dependent cell growth inhibition, spheroid 3D culture; assay type: cell-based; settings: PaTu 8902, 144 h, PA-TU-8902 spheroid 3D culture, 6 days; for IC50: CellTiter Glo 2.0
Procedure: Test Example 3: Evaluation of Non-Anchorage-Dependent Cell Growth Inhibitory Effect on Human KRAS G12V Mutant-Positive Pancreatic Cancer Line PA-TU-8902
The non-anchorage-dependent cell growth inhibitory effect of test compounds was evaluated by spheroid 3D cell culture.
PA-TU-8902 cells were seeded on low-cell-adhesive round bottom 384-well plates (PrimeSurface: from Sumitomo Bakelite) at 36 µL/well to give 5×10^2 cells per well. The cell culture was performed under the same conditions as in Test Example 1.
The next day, the test compounds (8 to 10 points having final concentrations in the range of 3 μM to 0.1 nM) and DMSO, which was the solvent for the test compounds, as a negative control were diluted 100-fold with a fresh medium and were added at 4 μL per well. After culturing in the presence of 5% CO2 at 37° C. for 6 days, CellTiter Glo 2.0 (from Promega) was added at 20 μL per well. After stirring with a plate mixer (from FINEPCR) at normal temperature for 1 hour, the luminescent signals were measured with ARVO X3 (from PerkinElmer).
With the signaling value in treatment with DMSO taken as 0% inhibition and with the signaling value in the medium alone without cells taken as 100% inhibition, the 50% inhibitory concentration values (IC50) were calculated by Sigmoid-Emax nonlinear regression analysis. The inhibition rate at 30 nM was calculated for Example No. 17.

[2] = target: T1, RAS G12V (Homo sapiens, UniProt P01116, G12V); assay: Test Example 1: RAS G12V degradation activity by Cell ELISA in PA-TU-8902; assay type: cell-based; settings: for DC50: 50% degradation concentration of RAS G12V, PA-TU-8902 cells, 24 hours, Cell ELISA, corrected with β-actin; for Dmax: PaTu 8902, degradation rate at the most active concentration, DMSO = 0%, Example No. 7 at 3 μM = 100%, PA-TU-8902, 24 hours
T1 construct: host or cells: PA-TU-8902 human pancreatic cancer cells
T1 sequence (P01116 1-188 isoform P01116-2 G12V): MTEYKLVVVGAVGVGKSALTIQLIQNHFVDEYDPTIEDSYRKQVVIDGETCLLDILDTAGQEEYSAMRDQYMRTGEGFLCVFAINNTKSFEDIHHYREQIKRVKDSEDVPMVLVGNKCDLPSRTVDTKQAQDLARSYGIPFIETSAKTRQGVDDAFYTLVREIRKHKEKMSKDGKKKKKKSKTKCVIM
Procedure: Test Example 1: Evaluation of RAS G12V Degradation Activity on Human KRAS G12V Mutant-Positive Pancreatic Cancer Line PA-TU-8902
The RAS G12V degradation activity of test compounds was evaluated by measuring the expression levels of RAS G12V by Cell ELISA.
PA-TU-8902 cells (DSMZ, ACC 179) were seeded at 36 μL per well on 384-well plates (from Greiner bio-one) to give 1.5×10^4 cells per well. As for the cell culture conditions, DMEM medium (from Sigma-Aldrich) containing 10% fetal bovine serum (from Cytiva) was used in the presence of 5% CO2 at 37° C.
The next day, the test compounds (10 points having final concentrations in the range of 3 μM to 0.1 nM), the compound of Example No. 7 having a final concentration of 3 μM as a positive control and dimethyl sulfoxide (DMSO), which was the solvent for the test compounds, as a negative control were diluted 100-fold with a fresh medium and were added at 4 μL per well. The cells were cultured for 24 hours.
The next day, the culture supernatant was removed, and 4% paraformaldehyde phosphate buffer (from FUJIFILM Wako Pure Chemical Corporation) was added at 20 μL per well. The plates were allowed to stand for 30 minutes at room temperature to thus immobilize the cells. Then, the supernatant was removed, and 0.1% Triton X-100 (from Amersham Biosciences)-containing Phosphate buffered saline (PBS) was added at 20 μL per well. After allowing to stand at room temperature for 10 minutes, the supernatant was removed. PBS was added at 25 μL per well, and the supernatant was removed to thus wash each well. The washing was performed twice in total. Subsequent washing operations were performed in the same manner. Next, the supernatant was removed, and 0.5% sodium dodecyl sulfate (SDS; from ThermoFisher Scientific)-containing PBS was added at 20 μL per well. After allowing to stand at room temperature for 10 minutes, the supernatant was removed by centrifugation of the plates. After washing with PBS, the supernatant was removed by centrifugation, and blocking solution (PVDF Blocking Reagent for Can Get Signal [from TOYOBO Co., Ltd.]) was added at 20 μL per well. After allowing to stand for 30 minutes at room temperature, the supernatant was removed by centrifugation and a solution obtained by diluting, as primary antibodies, anti-Ras (G12V Mutant Specific) antibody (Ras (G12V Mutant Specific) (D2H12) Rabbit mAb; from Cell Signaling Technology; 500-fold diluted) and […] (Anti-beta Actin antibody; from Abcam; 5,000-fold diluted) with Can Get Signal Solution 2 (from TOYOBO Co., Ltd.) was added at 15 μL per well. The plates were allowed to stand overnight at 4° C.
The next day, the supernatant was removed by centrifugation and washed with PBS. The supernatant was removed by centrifugation, a solution obtained by diluting, as secondary antibodies, anti-rabbit IgG antibody (IRDye 800CW Goat anti-Rabbit IgG; from LI-COR Biosciences) and anti-mouse IgG antibody (IRDye 680RD Donkey anti-Mouse IgG; from LI-COR Biosciences) 1,000-fold with Can Get Signal Solution 2 was added at 15 μL per well. After allowing to stand at room temperature for 1 hour, the supernatant was removed by centrifugation and washed with PBS. After removing the supernatant, the plates were dried with air at room temperature for 2 hours or more, and the 700 nm and 800 nm fluorescent signals were measured with Aerius (from LI-COR Biosciences).
The degradation rate of RAS G12V was calculated with the RAS G12V signaling value at the time of addition of DMSO taken as 0%, which was corrected with the signaling value of β-actin, and with the RAS G12V signaling value at the time of addition of the compound of Example No. 7 at a final concentration of 3 μM taken as 100%. […]

| IC50 [1] [nM] | DC50 [2] [nM] | Dmax [2] [%] | Compound | inhibition at 0.03 µM ([1]; 30 nM, CellTiter Glo 2.0, read-out: inhibition rate at 30 nM) [%] |
| --- | --- | --- | --- | --- |
| 74 | 7 | 83 | CO[C@@H](C)COc1nc(NCc2cccnc2)c2cc(C3CC3)c(-c3c(C)c(F)cc4[nH]ncc34)c(OCc3ccc(C(=O)N4CCN(Cc5ccc6c(c5)n(C)c(=O)n6C5CCC(=O)NC5=O)C[C@@H]4C)cc3)c2n1 (stereo partly drawn) [Example 4] | – |
| 48 | 5 | 81 | Cc1c(F)cc2[nH]ncc2c1-c1c(C2CC2)cc2c(NC3CN(c4ncccn4)C3)nc(OCC(C)(C)CN(C)C)nc2c1OCc1ccc(C(=O)N2CCN(Cc3ccc4c(c3)n(C)c(=O)n4C3CCC(=O)NC3=O)C[C@@H]2C)cc1 (stereo partly drawn) [Example 8] | – |
| – | 9 | 70 | CO[C@@H](C)COc1cc(OC2CN(C(=O)NCCN(C)C)C2)c2cc(C3CC3)c(-c3c(C)c(F)cc4[nH]ncc34)c(OCc3ccc(C(=O)N4CCN(Cc5ccc6c(c5)n(C)c(=O)n6C5CCC(=O)NC5=O)C[C@@H]4C)cc3)c2n1 (stereo partly drawn) [Example 17] | 50 |

More lines, now with the values behind:

| Compound | IC50 [1] [nM] | DC50 [2] [nM] | Dmax [2] [%] | inhibition at 0.03 µM ([1]; 30 nM, CellTiter Glo 2.0, read-out: inhibition rate at 30 nM) [%] |
| --- | --- | --- | --- | --- |
| CO[C@@H](C)COc1nc(N2CC(C#N)C2)c2cc(C3CC3)c(-c3c(C)c(F)cc4[nH]ncc34)c(OCc3ccc(C(=O)N4CCN(Cc5ccc6c(c5)n(C)c(=O)n6C5CCC(=O)NC5=O)C[C@@H]4C)cc3)c2n1 (stereo partly drawn) [Example 2, 1-{(7 M)-6-cyclopropyl-8-({4-[(2S)-4-([1-(2,6-dioxopiperidin-3-yl)-3-methyl-2-oxo-2,3-dihydro-1H-benzimidazol-5-yl]methyl)-2-methylpiperazine-1-carbonyl]phenyl)methoxy)-7-(6-fluoro-5-methyl-1H-indazol-4-yl)-2-[(2S)-2-methoxypropoxy]quinazolin-4-yl)azetidine-3-carbonitrile] | 21 | 4 | 89 | – |
| CO[C@@H](C)COc1nc(N2CC[C@@H](N)[C@@H](F)C2)c2cc(C3CC3)c(-c3c(C)c(F)cc4[nH]ncc34)c(OCc3ccc(C(=O)N4CCN(Cc5ccc6c(c5)n(C)c(=O)n6C5CCC(=O)NC5=O)C[C@@H]4C)cc3)c2n1 (stereo partly drawn) [Example 3, 3-(5-{[(3S)-4-{4-[({4-[(3S,4R)-4-amino-3-fluoropiperidin-1-yl]-6-cyclopropyl-7-(6-fluoro-5-methyl-1H-indazol-4-yl)-2-[(2S)-2-methoxypropoxy]quinazolin-8-yl)oxy)methyl]benzoyl}-3-methylpiperazin-1-yl]methyl}-3-methyl-2-oxo-2,3-dihydro-1H-benzimidazol-1-yl)piperidine-2,6-dione] | 67 | 29 | 74 | – |
